Biological target: T1, recombinant human SYK360-635 (Homo sapiens, UniProt P43405)
T1 construct: made in house
Experiment: Determination of IC50 of Spleen Tyrosine Kinase (SYK) inhibition, 33P ATP filtration assay
Format: biochemical
Conditions: SYK aa 360-635 0.5 nM; ATP 20 μM, peptide 5 μM, 0.1% BSA; read-out: SYK_ENZYME_FILTRATION/v1, BSA
Method: All concentrations were final in the reaction mixture and all incubations were carried at room temperature. […] SYK Assay Information Determination of IC50 of Spleen Tyrosine Kinase (SYK) Inhibition:
SYK kinase assay is a standard kinase assay adapted to a 96 well plate format. This assay is performed in 96-well format for IC50 determination with 8 samples which represented 10 half log dilutions and a 40 μL reaction volume. The assay measures the incorporation of radiolabeled ^33P γATP into an N-terminally biotinylated peptide substrate, derived from naturally occurring phosphoacceptor consensus sequence (Biotin-11aa DY*E). […] Experimental Method:
DMSO and the mixture was incubated for 10 min at RT.
The kinase reaction was initiated by the addition of 10 μL 4× substrate cocktail containing the DYE peptide substrate [0 or 5 μM], ATP [20 μM] and ^33PγATP [2 μCi/r×n]. After incubation at 30° C. for 15 min, the reaction was terminated by the transfer of 25 μL pf the reaction sample to a 96 well 0.65 μm Millipore MADVNOB membrane/plate containing 200 μL 5 mM EDTA and 20% Streptavidine coated beads in PBS.
The unbound radionucleotides were washed under vacuum with 3×250 μL 2M NaCl; 2×250 μL 2M NaCl+1% phosphoric acid; 1×250 μL H2O. After the last wash membrane/plates were transferred to an adaptor plate, heat dried for 15 min at 60° C., and 50 μL scintillation cocktail was added to each well and 4 h later the amount of radioactivity was counted in a top counter.

Point of comparison: `Cc1cccc2c(-c3cnc4[nH]cc(C(=O)NC(C)(C)C)c4n3)n[nH]c12` [Example I-369, 2-(7-Methyl-1H-indazol-3-yl)-5H-pyrrolo[2,3-b]pyrazine-7-carboxylic acid tert-butylamide], IC50 8 nM. Against it:
- CC(C)(C)NC(=O)c1c[nH]c2ncc(-c3nn(CC4CN(Cc5ccccc5)CCO4)c4ccc(OC(F)F)cc34)nc12 (stereo not shown) [Example I-340, 2-[1-(4-Benzyl-morpholin-2-ylmethyl)-5-difluoromethoxy-1H-indazol-3-yl]-5H-pyrrolo[2,3-b]pyrazine-7-carboxylic acid tert-butylamide] — 37-fold higher, 295 nM
- CN1CCOC(Cn2nc(-c3cnc4[nH]cc(C(=O)NC(C)(C)C)c4n3)c3cc(OC(F)F)ccc32)C1 (stereo not shown) [Example I-342, 2-[5-Difluoromethoxy-1-(4-methyl-morpholin-2-ylmethyl)-1H-indazol-3-yl]-5H-pyrrolo[2,3-b]pyrazine-7-carboxylic acid tert-butylamide] — 2.1-fold higher, 17.2 nM
- CC(C)(C)NC(=O)c1c[nH]c2ncc(-c3nn(CCCN4CCC(F)(F)C4)c4ccc(OC(F)F)cc34)nc12 [Example I-343, 2-{5-Difluoromethoxy-1-[3-(3,3-difluoro-pyrrolidin-1-yl)-propyl]-1H-indazol-3-yl}-5H-pyrrolo[2,3-b]pyrazine-7-carboxylic acid tert-butylamide] — 4.6-fold higher, 37 nM
- COc1nn(-c2cnc3[nH]cc(C(=O)NC(C)(C)CO)c3n2)c2ccccc12 [Example I-344, 2-(3-Methoxy-indazol-1-yl)-5H-pyrrolo[2,3-b]pyrazine-7-carboxylic acid (2-hydroxy-1,1-dimethyl-ethyl)-amide] — within 1.5-fold, 8.88 nM
- CNCCCn1nc(-c2cnc3[nH]cc(C(=O)NC(C)(C)C)c3n2)c2cc(OC(F)F)ccc21 [Example I-345, 2-[5-Difluoromethoxy-1-(3-methylamino-propyl)-1H-indazol-3-yl]-5H-pyrrolo[2,3-b]pyrazine-7-carboxylic acid tert-butylamide] — 1.6-fold lower, 5.12 nM
- CC(=O)N(C)CCCn1nc(-c2cnc3[nH]cc(C(=O)NC(C)(C)C)c3n2)c2cc(OC(F)F)ccc21 [Example I-346, 2-{1-[3-(Acetyl-methyl-amino)-propyl]-5-difluoromethoxy-1H-indazol-3-yl}-5H-pyrrolo[2,3-b]pyrazine-7-carboxylic acid tert-butylamide] — within 1.5-fold, 5.55 nM
- CC(C)(C)NC(=O)c1c[nH]c2ncc(-c3nn(CC4CNC4)c4ccc(OC(F)F)cc34)nc12 [Example I-350, 2-(1-Azetidin-3-ylmethyl-5-difluoromethoxy-1H-indazol-3-yl)-5H-pyrrolo[2,3-b]pyrazine-7-carboxylic acid tert-butylamide] — within 1.5-fold, 5.98 nM
- CC(C)(C)NC(=O)c1c[nH]c2ncc(-c3nn(CC4CC4)c4ccc(OC(F)F)cc34)nc12 [Example I-351, 2-(1-Cyclopropylmethyl-5-difluoromethoxy-1H-indazol-3-yl)-5H-pyrrolo[2,3-b]pyrazine-7-carboxylic acid tert-butylamide] — 2.3-fold higher, 18.4 nM
- CC(C)(C)NC(=O)c1c[nH]c2ncc(-c3nn(CC(=O)N4CCN(CC(F)(F)F)CC4)c4ccc(OC(F)F)cc34)nc12 [Example I-352, 2-(5-Difluoromethoxy-1-{2-oxo-2-[4-(2,2,2-trifluoro-ethyl)-piperazin-1-yl]-ethyl}-1H-indazol-3-yl)-5H-pyrrolo[2,3-b]pyrazine-7-carboxylic acid tert-butylamide] — 2-fold higher, 15.9 nM
- CN1CCN(C(=O)Cn2nc(-c3cnc4[nH]cc(C(=O)NC(C)(C)C)c4n3)c3cc(OC(F)F)ccc32)CC1 [Example I-353, 2-{5-Difluoromethoxy-1-[2-(4-methyl-piperazin-1-yl)-2-oxo-ethyl]-1H-indazol-3-yl}-5H-pyrrolo[2,3-b]pyrazine-7-carboxylic acid tert-butylamide] — 7-fold higher, 56.3 nM
- CNC(=O)Cn1nc(-c2cnc3[nH]cc(C(=O)NC(C)(C)C)c3n2)c2cc(OC(F)F)ccc21 [Example I-354, 2-(5-Difluoromethoxy-1-methylcarbamoylmethyl-1H-indazol-3-yl)-5H-pyrrolo[2,3-b]pyrazine-7-carboxylic acid tert-butylamide] — 1.8-fold higher, 14.4 nM
- CCc1cccc2c(-c3cnc4[nH]cc(C(=O)NC(C)(C)C)c4n3)n[nH]c12 [Example I-355, 2-(7-Ethyl-1H-indazol-3-yl)-5H-pyrrolo[2,3-b]pyrazine-7-carboxylic acid tert-butylamide] — 2.5-fold lower, 3.19 nM
- CC(C)(C)NC(=O)c1c[nH]c2ncc(-c3ncn4cc(Cl)ccc34)nc12 [Example I-356, 2-(6-Chloro-imidazo[1,5-a]pyridin-1-yl)-5H-pyrrolo[2,3-b]pyrazine-7-carboxylic acid tert-butylamide] — within 1.5-fold, 8.92 nM
- C[C@H](NC(=O)c1c[nH]c2ncc(-c3nn(C)c4cc(F)ccc34)nc12)c1ncc(C(F)(F)F)[nH]1 [Example I-358, 2-(6-Fluoro-1-methyl-1H-indazol-3-yl)-5H-pyrrolo[2,3-b]pyrazine-7-carboxylic acid [(S)-1-(5-trifluoromethyl-1H-imidazol-2-yl)-ethyl]-amide] — 13-fold higher, 107 nM
- COC(=O)c1cnc([C@H](C)NC(=O)c2c[nH]c3ncc(-c4nn(C)c5cc(F)ccc45)nc23)[nH]1 [Example I-359, 2-((S)-1-{[2-(6-Fluoro-1-methyl-1H-indazol-3-yl)-5H-pyrrolo[2,3-b]pyrazine-7-carbonyl]-amino}-ethyl)-3H-imidazole-4-carboxylic acid methyl ester] — 14-fold higher, 112 nM
- C#CC1CN(C(=O)c2c[nH]c3ncc(-c4nn(C)c5cc(F)ccc45)nc23)C1 [Example I-360, (3-Ethynyl-azetidin-1-yl)-[2-(6-fluoro-1-methyl-1H-indazol-3-yl)-5H-pyrrolo[2,3-b]pyrazin-7-yl]-methanone] — 190-fold higher, 1550 nM
- CONC(=O)c1c[nH]c2ncc(-c3nn(C)c4cc(F)ccc34)nc12 [Example I-361, 2-(6-Fluoro-1-methyl-1H-indazol-3-yl)-5H-pyrrolo[2,3-b]pyrazine-7-carboxylic acid methoxy-amide] — 27-fold higher, 214 nM
- CCc1ccc2c(-c3cnc4[nH]cc(C(=O)NC(C)(C)C)c4n3)nn(C)c2c1 [Example I-367, 2-(6-Ethyl-1-methyl-1H-indazol-3-yl)-5H-pyrrolo[2,3-b]pyrazine-7-carboxylic acid tert-butylamide] — 1.7-fold lower, 4.78 nM
- Cc1ccc2c(-c3cnc4[nH]cc(C(=O)NC(C)(C)CO)c4n3)nn(C)c2c1 [Example I-368, 2-(1,6-Dimethyl-1H-indazol-3-yl)-5H-pyrrolo[2,3-b]pyrazine-7-carboxylic acid (2-hydroxy-1,1-dimethyl-ethyl)-amide] — within 1.5-fold, 8.95 nM
- Cn1nc(-c2cnc3[nH]cc(C(=O)NC(C)(C)C)c3n2)c2ccc(OC(F)(F)F)cc21 [Example I-370, 2-(1-Methyl-6-trifluoromethoxy-1H-indazol-3-yl)-5H-pyrrolo[2,3-b]pyrazine-7-carboxylic acid tert-butylamide] — 5.1-fold higher, 41 nM
- Cn1nc(-c2cnc3[nH]cc(C(=O)NC(C)(C)CO)c3n2)c2ccc(OC(F)(F)F)cc21 [Example I-371, 2-(1-Methyl-6-trifluoromethoxy-1H-indazol-3-yl)-5H-pyrrolo[2,3-b]pyrazine-7-carboxylic acid (2-hydroxy-1,1-dimethyl-ethyl)-amide] — 2.9-fold higher, 23.1 nM
- Cc1cccc2c(-c3cnc4[nH]cc(C(=O)NC(C)(C)CO)c4n3)n[nH]c12 [Example I-372, 2-(7-Methyl-1H-indazol-3-yl)-5H-pyrrolo[2,3-b]pyrazine-7-carboxylic acid (2-hydroxy-1,1-dimethyl-ethyl)-amide] — 1.6-fold lower, 5.12 nM
- Cn1nc(-c2cnc3[nH]cc(C(=O)NC(C)(C)C)c3n2)c2cccnc21 [Example I-373, 2-(1-Methyl-1H-pyrazolo[3,4-b]pyridin-3-yl)-5H-pyrrolo[2,3-b]pyrazine-7-carboxylic acid tert-butylamide] — 2.4-fold higher, 19 nM
- Cn1nc(-c2cnc3[nH]cc(C(=O)NC4(CO)CC4)c3n2)c2ccc(F)cc21 [Example I-374, 2-(6-Fluoro-1-methyl-1H-indazol-3-yl)-5H-pyrrolo[2,3-b]pyrazine-7-carboxylic acid (1-hydroxymethyl-cyclopropyl)-amide] — within 1.5-fold, 7.65 nM
- Cn1nc(-c2cnc3[nH]cc(C(=O)NC4(C)CCC4)c3n2)c2ccc(F)cc21 [Example I-376, 2-(6-Fluoro-1-methyl-1H-indazol-3-yl)-5H-pyrrolo[2,3-b]pyrazine-7-carboxylic acid (1-methyl-cyclobutyl)-amide] — 2.8-fold lower, 2.82 nM
- Cn1nc(-c2cnc3[nH]cc(C(=O)NC(C)(C)CN)c3n2)c2ccc(F)cc21 [Example I-379, 2-(6-Fluoro-1-methyl-1H-indazol-3-yl)-5H-pyrrolo[2,3-b]pyrazine-7-carboxylic acid (2-amino-1,1-dimethyl-ethyl)-amide] — 18-fold higher, 145 nM
- C#CC(C)(C)NC(=O)c1c[nH]c2ncc(-c3nn(C)c4cc(F)ccc34)nc12 [Example I-380, 2-(6-Fluoro-1-methyl-1H-indazol-3-yl)-5H-pyrrolo[2,3-b]pyrazine-7-carboxylic acid (1,1-dimethyl-prop-2-ynyl)-amide] — within 1.5-fold, 9.95 nM
- Cn1nc(-c2cnc3[nH]cc(C(=O)NC(C)(C)C(=O)OC(C)(C)C)c3n2)c2ccc(F)cc21 [Example I-381, 2-{[2-(6-Fluoro-1-methyl-1H-indazol-3-yl)-5H-pyrrolo[2,3-b]pyrazine-7-carbonyl]-amino}-2-methyl-propionic acid tert-butyl ester] — 90-fold higher, 716 nM
- Cn1nc(-c2cnc3[nH]cc(C(=O)NC(C)(C)C(=O)O)c3n2)c2ccc(F)cc21 [Example I-382, 2-{[2-(6-Fluoro-1-methyl-1H-indazol-3-yl)-5H-pyrrolo[2,3-b]pyrazine-7-carbonyl]-amino}-2-methyl-propionic acid] — 120-fold higher, 945 nM

Same assay, conditions: SYK_ENZYME_FILTRATION/v1, BSA, SYK aa 360-635 0.5 nM; ATP 20 μM, peptide 5 μM, 0.1% BSA

Work on `CC(C)(CO)NC(=O)c1c[nH]c2ncc(-n3nc(C4CCNCC4)c4ccccc43)nc12` [Example I-347, 2-(3-Piperidin-4-yl-indazol-1-yl)-5H-pyrrolo[2,3-b]pyrazine-7-carboxylic acid (2-hydroxy-1,1-dimethyl-ethyl)-amide] yielded an IC50 of 14.3 nM.
